Results as given in ChEMBL document CHEMBL5729744, “Granzyme B directed imaging and therapy” (2023).

Target: Granzyme B (Homo sapiens, UniProt P10144)
Assay: Biochemical Assay: Buffer pH7.4: Prepare 1 (M) KH2PO4 and 1 (M) K2HPO4. Titrate 1(M) K2HPO4 with 1 (M) KH2PO4 to obtain pH 7.40. Dilute this buffer 10 fold in Water (30 ml buffer+270 ml of water) to obtain 100 mM phosphate buffer. Adjust pH to 7.40±0.02 using 5(N) HCl or 5(N) NaOH. NADPH Regeneration System (NRS): Prepare a solution containing 13 mM NADP, 33 mM Glucose-6-phosphate, 33 mM MgCl2and 4 U/ml Glucose-6-phosphate dehydrogenase in buffer. Liver Microsome (LM) suspension: Thaw LM vial on ice, then mix 1.0 ml LM (20 mg/ml) with 19 ml buffer [final LM Conc: 1 mg/ml] LM+NRS suspension: Mix 5.0 ml NRS with 20 ml LM suspension [final LM Conc: 0.8 mg/ml] System suitability standard: a synthesized compound having Mol wt 686.2 used as System suitability standard. Dissolve this compound in ice-cold acetonitrile to obtain concentration of 0.1 μg/ml and store at 4° C. Compound Dilution: Compound Stock: 10 mM in DMSO Sub stock (100 μM): 4 μl of 10 mM Compound Stock+398 μl Acetonitrile. Working plate (2 μM): 10 μl of 100 μM Sub stock+490 μl buffer Assay Procedure Incubate all plastic materials including tips at 37° C. overnight. Incubate LM suspension and NRS at 37° C. for 15 min before use. Add 40 μl buffer to the wells of blank plate. Add 40 μl compound (from working plate) to 0, 5, 10, 20, 30 and 60 min plates. Initiate reaction by adding 40 μl of LM+NRS suspension in each plate. […]

Chain of Granzyme B (P10144 whole entry): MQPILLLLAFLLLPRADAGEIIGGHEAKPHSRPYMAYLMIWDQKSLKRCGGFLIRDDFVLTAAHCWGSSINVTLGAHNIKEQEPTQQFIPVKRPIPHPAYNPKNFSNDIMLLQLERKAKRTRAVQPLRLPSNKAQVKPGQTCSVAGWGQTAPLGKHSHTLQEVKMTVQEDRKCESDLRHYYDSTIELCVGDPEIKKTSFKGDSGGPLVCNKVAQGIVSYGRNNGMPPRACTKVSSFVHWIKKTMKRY

IC50: > 5 µM
SMILES: O=C(Cc1ccccc1)NCC(=O)N[C@H]1CCc2cccc3c2N(C1=O)[C@H](C(=O)NCc1c[nH]nn1)C3
